Assay results taken from PubChem BioAssay (NCI).
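Following 48 hours of exposure in 96-well plates, responses at five concentrations were used to interpolate endpoints linearly. GI50: concentration for 50% inhibition of growth. TGI denotes the concentration required for complete inhibition of growth.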

Legend:
Experiment in all cases: NCI anticancer screen, dose series, 48 h
NCI-H226 lung = test system: NCI-H226 lung
MCF7 breast = test system: MCF7 breast
HCT-15 colon = test system: HCT-15 colon
SK-MEL-5 melanoma = test system: SK-MEL-5 melanoma
HOP-92 NSCLC = test system: HOP-92 NSCLC
MOLT-4 leukemia = test system: MOLT-4 leukemia
NCI/ADR-RES ovarian = test system: NCI/ADR-RES ovarian
SF-295 CNS = test system: SF-295 CNS
OVCAR-5 ovarian = test system: OVCAR-5 ovarian
OVCAR-3 ovarian = test system: OVCAR-3 ovarian
MALME-3M melanoma = test system: MALME-3M melanoma
RPMI-8226 leukemia = test system: RPMI-8226 leukemia
HS 578T breast = test system: HS 578T breast
DU-145 prostate = test system: DU-145 prostate
HCC-2998 colon = test system: HCC-2998 colon
RXF 393 renal = test system: RXF 393 renal
PC-3 prostate = test system: PC-3 prostate
NCI-H460 lung = test system: NCI-H460 lung
UACC-257 melanoma = test system: UACC-257 melanoma
UO-31 renal = test system: UO-31 renal
CCRF-CEM leukemia = test system: CCRF-CEM leukemia
IGROV1 ovarian = test system: IGROV1 ovarian
786-0 renal = test system: 786-0 renal
SNB-75 CNS = test system: SNB-75 CNS
NCI-H522 lung = test system: NCI-H522 lung
CAKI-1 renal = test system: CAKI-1 renal
SR leukemia = test system: SR leukemia
HL-60(TB) leukemia = test system: HL-60(TB) leukemia
HCT-116 colon = test system: HCT-116 colon
SK-OV-3 ovarian = test system: SK-OV-3 ovarian
SK-MEL-28 melanoma = test system: SK-MEL-28 melanoma
OVCAR-8 ovarian = test system: OVCAR-8 ovarian
A498 renal = test system: A498 renal
LOX IMVI melanoma = test system: LOX IMVI melanoma
TK-10 renal = test system: TK-10 renal
KM12 colon = test system: KM12 colon
COLO 205 colon = test system: COLO 205 colon
M14 melanoma = test system: M14 melanoma
SNB-19 CNS = test system: SNB-19 CNS
HT29 colon = test system: HT29 colon
OVCAR-4 ovarian = test system: OVCAR-4 ovarian
SW-620 colon = test system: SW-620 colon
U251 CNS = test system: U251 CNS
MDA-MB-435 = test system: MDA-MB-435
BT-549 breast = test system: BT-549 breast
SF-539 CNS = test system: SF-539 CNS
SN12C renal = test system: SN12C renal
MDA-MB-231 breast = test system: MDA-MB-231 breast
T-47D breast = test system: T-47D breast
A549 NSCLC = test system: A549 NSCLC
ACHN renal = test system: ACHN renal
SK-MEL-2 melanoma = test system: SK-MEL-2 melanoma
HOP-62 NSCLC = test system: HOP-62 NSCLC
UACC-62 melanoma = test system: UACC-62 melanoma
SF-268 CNS = test system: SF-268 CNS
EKVX NSCLC = test system: EKVX NSCLC
K-562 leukemia = test system: K-562 leukemia

Question: Which GI50 (NCI-H226 lung) does the source give for `C/C(=C(/c1ccc(O)cc1)c1ccc(OCCN2CCCC2)cc1)c1ccc(Cl)cc1` here?
Answer: 10.8 µM

Question: And the TGI (NCI-H226 lung)?
Answer: 32.4 µM

Question: And the GI50 (MCF7 breast)?
Answer: 0.0364 µM

Question: What about the TGI (MCF7 breast) of the same molecule?
Answer: 3.26 µM

Question: What about the GI50 (HCT-15 colon) of the same molecule?
Answer: 1.99 µM

Question: What about the TGI (HCT-15 colon) of the same molecule?
Answer: 4.62 µM

Question: And the GI50 (SK-MEL-5 melanoma)?
Answer: 1.78 µM

Question: What about the TGI (SK-MEL-5 melanoma) of the same molecule?
Answer: 3.23 µM

Question: What about the GI50 (HOP-92 NSCLC) of the same molecule?
Answer: 2.38 µM

Question: What about the TGI (HOP-92 NSCLC) of the same molecule?
Answer: 9.63 µM

Question: And the GI50 (MOLT-4 leukemia)?
Answer: 2.52 µM

Question: And the TGI (MOLT-4 leukemia)?
Answer: 6.02 µM

Question: What about the GI50 (NCI/ADR-RES ovarian) of the same molecule?
Answer: 3.68 µM

Question: What about the TGI (NCI/ADR-RES ovarian) of the same molecule?
Answer: 14.2 µM

Question: What about the GI50 (SF-295 CNS) of the same molecule?
Answer: 2.16 µM

Question: And the TGI (SF-295 CNS)?
Answer: 4.77 µM

Question: And the GI50 (OVCAR-5 ovarian)?
Answer: 6.26 µM

Question: And the TGI (OVCAR-5 ovarian)?
Answer: 18.8 µM

Question: What about the GI50 (OVCAR-3 ovarian) of the same molecule?
Answer: 3.05 µM

Question: And the TGI (OVCAR-3 ovarian)?
Answer: 11.8 µM

Question: What about the GI50 (MALME-3M melanoma) of the same molecule?
Answer: 1.64 µM

Question: What about the TGI (MALME-3M melanoma) of the same molecule?
Answer: 3.11 µM

Question: And the GI50 (RPMI-8226 leukemia)?
Answer: 2.24 µM

Question: And the TGI (RPMI-8226 leukemia)?
Answer: 5.52 µM

Question: What about the GI50 (HS 578T breast) of the same molecule?
Answer: 2.56 µM

Question: And the TGI (HS 578T breast)?
Answer: 8.36 µM

Question: What about the GI50 (DU-145 prostate) of the same molecule?
Answer: 4.54 µM

Question: And the TGI (DU-145 prostate)?
Answer: 15.7 µM

Question: And the GI50 (HCC-2998 colon)?
Answer: 2.06 µM

Question: What about the TGI (HCC-2998 colon) of the same molecule?
Answer: 4.21 µM

Question: And the GI50 (RXF 393 renal)?
Answer: 1.63 µM

Question: And the TGI (RXF 393 renal)?
Answer: 3.23 µM

Question: What about the GI50 (PC-3 prostate) of the same molecule?
Answer: 2.94 µM

Question: And the TGI (PC-3 prostate)?
Answer: 10.8 µM

Question: What about the GI50 (NCI-H460 lung) of the same molecule?
Answer: 1.8 µM

Question: What about the TGI (NCI-H460 lung) of the same molecule?
Answer: 3.33 µM

Question: What about the GI50 (UACC-257 melanoma) of the same molecule?
Answer: 1.78 µM

Question: What about the TGI (UACC-257 melanoma) of the same molecule?
Answer: 3.55 µM

Question: And the GI50 (UO-31 renal)?
Answer: 2.51 µM

Question: What about the TGI (UO-31 renal) of the same molecule?
Answer: 11.4 µM

Question: What about the GI50 (CCRF-CEM leukemia) of the same molecule?
Answer: 2.41 µM

Question: And the TGI (CCRF-CEM leukemia)?
Answer: 7.38 µM

Question: What about the GI50 (IGROV1 ovarian) of the same molecule?
Answer: 4.62 µM

Question: What about the TGI (IGROV1 ovarian) of the same molecule?
Answer: 17.5 µM

Question: And the GI50 (786-0 renal)?
Answer: 1.65 µM

Question: And the TGI (786-0 renal)?
Answer: 3.16 µM

Question: What about the GI50 (SNB-75 CNS) of the same molecule?
Answer: 3.06 µM

Question: What about the TGI (SNB-75 CNS) of the same molecule?
Answer: 16.6 µM

Question: What about the GI50 (NCI-H522 lung) of the same molecule?
Answer: 1.83 µM

Question: What about the TGI (NCI-H522 lung) of the same molecule?
Answer: 4.11 µM

Question: What about the GI50 (CAKI-1 renal) of the same molecule?
Answer: 2.07 µM

Question: And the TGI (CAKI-1 renal)?
Answer: 6.39 µM

Question: What about the GI50 (SR leukemia) of the same molecule?
Answer: 1.81 µM

Question: And the TGI (SR leukemia)?
Answer: 4.71 µM

Question: And the GI50 (HL-60(TB) leukemia)?
Answer: 2.09 µM

Question: And the TGI (HL-60(TB) leukemia)?
Answer: 4.11 µM

Question: And the GI50 (HCT-116 colon)?
Answer: 1.63 µM

Question: What about the TGI (HCT-116 colon) of the same molecule?
Answer: 3.21 µM

Question: And the GI50 (SK-OV-3 ovarian)?
Answer: 9.59 µM

Question: What about the TGI (SK-OV-3 ovarian) of the same molecule?
Answer: 21.5 µM

Question: And the GI50 (SK-MEL-28 melanoma)?
Answer: 1.75 µM

Question: What about the TGI (SK-MEL-28 melanoma) of the same molecule?
Answer: 3.21 µM

Question: And the GI50 (OVCAR-8 ovarian)?
Answer: 2.82 µM

Question: And the TGI (OVCAR-8 ovarian)?
Answer: 8.04 µM

Question: And the GI50 (A498 renal)?
Answer: 16.6 µM

Question: What about the TGI (A498 renal) of the same molecule?
Answer: 32.3 µM

Question: And the GI50 (LOX IMVI melanoma)?
Answer: 1.71 µM

Question: What about the TGI (LOX IMVI melanoma) of the same molecule?
Answer: 3.17 µM

Question: And the GI50 (TK-10 renal)?
Answer: 13.6 µM

Question: And the TGI (TK-10 renal)?
Answer: 27.3 µM

Question: What about the GI50 (KM12 colon) of the same molecule?
Answer: 3.39 µM

Question: What about the TGI (KM12 colon) of the same molecule?
Answer: 12.2 µM

Question: And the GI50 (COLO 205 colon)?
Answer: 1.64 µM

Question: And the TGI (COLO 205 colon)?
Answer: 3.14 µM

Question: What about the GI50 (M14 melanoma) of the same molecule?
Answer: 1.69 µM

Question: What about the TGI (M14 melanoma) of the same molecule?
Answer: 3.23 µM

Question: And the GI50 (SNB-19 CNS)?
Answer: 3.85 µM

Question: And the TGI (SNB-19 CNS)?
Answer: 13.8 µM

Question: And the GI50 (HT29 colon)?
Answer: 1.73 µM

Question: And the TGI (HT29 colon)?
Answer: 3.41 µM

Question: What about the GI50 (OVCAR-4 ovarian) of the same molecule?
Answer: 4.78 µM

Question: And the TGI (OVCAR-4 ovarian)?
Answer: 17.2 µM

Question: What about the GI50 (SW-620 colon) of the same molecule?
Answer: 1.69 µM

Question: What about the TGI (SW-620 colon) of the same molecule?
Answer: 3.24 µM

Question: And the GI50 (U251 CNS)?
Answer: 2.03 µM

Question: What about the TGI (U251 CNS) of the same molecule?
Answer: 4.59 µM

Question: What about the GI50 (MDA-MB-435) of the same molecule?
Answer: 1.72 µM

Question: And the TGI (MDA-MB-435)?
Answer: 3.21 µM

Question: And the GI50 (BT-549 breast)?
Answer: 8.98 µM

Question: And the TGI (BT-549 breast)?
Answer: 21.1 µM

Question: What about the GI50 (SF-539 CNS) of the same molecule?
Answer: 1.69 µM

Question: And the TGI (SF-539 CNS)?
Answer: 3.24 µM

Question: What about the GI50 (SN12C renal) of the same molecule?
Answer: 5.21 µM

Question: What about the TGI (SN12C renal) of the same molecule?
Answer: 18.2 µM

Question: And the GI50 (MDA-MB-231 breast)?
Answer: 3.52 µM

Question: What about the TGI (MDA-MB-231 breast) of the same molecule?
Answer: 13.1 µM

Question: What about the GI50 (T-47D breast) of the same molecule?
Answer: 1.54 µM

Question: And the TGI (T-47D breast)?
Answer: 10.4 µM

Question: And the GI50 (A549 NSCLC)?
Answer: 7.58 µM

Question: What about the TGI (A549 NSCLC) of the same molecule?
Answer: 20.5 µM

Question: And the GI50 (ACHN renal)?
Answer: 3.35 µM

Question: What about the TGI (ACHN renal) of the same molecule?
Answer: 11.9 µM

Question: And the GI50 (SK-MEL-2 melanoma)?
Answer: 7.37 µM

Question: And the TGI (SK-MEL-2 melanoma)?
Answer: 20.5 µM

Question: What about the GI50 (HOP-62 NSCLC) of the same molecule?
Answer: 3.99 µM

Question: What about the TGI (HOP-62 NSCLC) of the same molecule?
Answer: 15 µM

Question: And the GI50 (UACC-62 melanoma)?
Answer: 2.04 µM

Question: And the TGI (UACC-62 melanoma)?
Answer: 4.57 µM

Question: And the GI50 (SF-268 CNS)?
Answer: 4.78 µM

Question: And the TGI (SF-268 CNS)?
Answer: 20 µM

Question: What about the GI50 (EKVX NSCLC) of the same molecule?
Answer: 5.84 µM

Question: What about the TGI (EKVX NSCLC) of the same molecule?
Answer: 18.7 µM

Question: And the GI50 (K-562 leukemia)?
Answer: 1.64 µM

Question: And the TGI (K-562 leukemia)?
Answer: 3.94 µM
